Data: patent publication US9834542B2, “LXR modulators” (BRISTOL-MYERS SQUIBB COMPANY, priority 2013, dated 2017)

Target: T1, LXRβ (Homo sapiens, UniProt P55055)
T1 construct: Co-transfection expression plasmids, comprising full-length LXRα (pCMX-h LXRα[…] or LXRβ (pCMX-hLXRβ)); expressed in transfected cells; host or cells: CV-1 African Green Monkey Kidney Cells
T1 sequence (P55055 1-460): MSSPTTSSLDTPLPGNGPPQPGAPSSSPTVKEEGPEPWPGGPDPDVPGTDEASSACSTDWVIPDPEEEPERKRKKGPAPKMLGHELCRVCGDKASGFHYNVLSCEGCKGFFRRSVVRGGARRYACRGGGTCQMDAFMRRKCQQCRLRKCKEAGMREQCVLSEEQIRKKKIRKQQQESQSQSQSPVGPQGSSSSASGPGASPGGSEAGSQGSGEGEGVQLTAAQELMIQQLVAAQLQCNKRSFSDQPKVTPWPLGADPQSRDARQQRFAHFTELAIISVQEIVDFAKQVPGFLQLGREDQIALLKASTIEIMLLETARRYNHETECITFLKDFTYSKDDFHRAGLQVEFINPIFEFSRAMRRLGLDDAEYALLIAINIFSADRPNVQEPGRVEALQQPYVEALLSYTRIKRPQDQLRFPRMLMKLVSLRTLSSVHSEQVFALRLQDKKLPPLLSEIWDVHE
T1 sequence (P19793 1-462 partner): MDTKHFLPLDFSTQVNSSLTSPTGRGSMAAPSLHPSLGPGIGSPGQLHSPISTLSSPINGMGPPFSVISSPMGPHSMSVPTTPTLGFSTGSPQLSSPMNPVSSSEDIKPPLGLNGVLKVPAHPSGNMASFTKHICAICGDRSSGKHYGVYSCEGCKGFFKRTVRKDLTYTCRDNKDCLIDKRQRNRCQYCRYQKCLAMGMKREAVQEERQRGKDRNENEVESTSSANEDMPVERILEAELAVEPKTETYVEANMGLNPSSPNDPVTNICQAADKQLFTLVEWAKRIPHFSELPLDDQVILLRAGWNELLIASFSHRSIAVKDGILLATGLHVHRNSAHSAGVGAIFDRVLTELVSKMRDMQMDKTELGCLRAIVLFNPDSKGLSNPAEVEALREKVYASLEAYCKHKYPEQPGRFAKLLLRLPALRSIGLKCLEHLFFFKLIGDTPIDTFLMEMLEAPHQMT
Test: Co-transfection assay (LXRE luciferase reporter), LXRβ
Format: cell-based
Details: for EC50: CV-1 cells transfected with pCMX-hLXRβ and LXREx1-Tk-Luciferase, 20 hours incubation; for Emax: LXRβ co-transfection, relative to high control 1-(2,4-difluorobenzyl)-2-oxo-6-(4-phenoxyphenyl)-4-(trifluoromethyl)-1,2-dihydropyridine-3-carbonitrile, read-out: % Efficacy
How it was run: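 Cell-based LXRβ agonism measured as LXRE-luciferase induction in transiently transfected CV-1 cells after 20 h treatment. Potency is the curve-fit EC50; efficacy is expressed as percent of a full-agonist control's maximal response.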

EC50 | Emax | Structure (SMILES)
1790 nM | 95% | CS(=O)(=O)c1cc(-c2cc(F)c(-n3cnc(C(F)(F)F)c3)c(-n3nncc3-c3ccc(OC(F)(F)F)cc3)c2)cc(F)c1CO [Example 189, [3,3′-difluoro-5-(methylsulfonyl)-4′-[4-(trifluoromethyl)-1H-imidazol-1-yl]-5′-(5-{4-[(trifluoromethyl)oxy]phenyl}-1H-1,2,3-triazol-1-yl)biphenyl-4-yl]methanol]
315 nM | 79% | CNS(=O)(=O)c1cccc(-c2ccc(-n3cc(C(C)(F)F)nc3C)c(-n3nncc3-c3ccc(OC(F)(F)F)cc3)c2)c1 [Example 175, 4′-[4-(1,1-difluoroethyl)-2-methyl-1H-imidazol-1-yl]-N-methyl-3′-(5-{4-[(trifluoromethyl)oxy]phenyl}-1H-1,2,3-triazol-1-yl)biphenyl-3-sulfonamide]
12 nM | 61% | Cc1cc(-c2cc(-c3ccc(CO)c(S(C)(=O)=O)c3)ccc2-n2cc(C(F)(F)F)nc2C)n(-c2ccc3c(c2)OC(F)(F)O3)n1 [Example 300, (3′-(1-(2,2-difluorobenzo[d][1,3]dioxol-5-yl)-3-methyl-1H-pyrazol-5-yl)-4′-(2-methyl-4-(trifluoromethyl)-1H-imidazol-1-yl)-3-(methylsulfonyl)biphenyl-4-yl)methanol]
589 nM | 117% | Cc1cc(-c2cnnn2-c2cc(-c3cccc(S(C)(=O)=O)c3)ccc2-n2cc(C(F)(F)F)nc2C)ccc1F [Example 28, 5-(4-fluoro-3-methylphenyl)-1-{3′-(methylsulfonyl)-4-[2-methyl-4-(trifluoromethyl)-1H-imidazol-1-yl]biphenyl-3-yl}-1H-1,2,3-triazole]
281 nM | 48% | Cc1nc(C(F)(F)F)cn1-c1ccc(-c2cc(F)c(CO)c(S(C)(=O)=O)c2)cc1-n1nncc1C1(c2ccc(Cl)cc2)CC1 [Example 106, (3′-{5-[1-(4-chlorophenyl)cyclopropyl]-1H-1,2,3-triazol-1-yl}-3-fluoro-5-(methylsulfonyl)-4′-[2-methyl-4-(trifluoromethyl)-1H-imidazol-1-yl]biphenyl-4-yl)methanol]
206 nM | 81% | COCS(=O)(=O)c1cccc(-c2ccc(-n3cc(C(F)(F)F)nc3C)c(-c3nc(C)oc3-c3ccc(OC(F)(F)F)cc3)c2)c1 [Example 539, 4-(3′-((methoxymethyl)sulfonyl)-4-(2-methyl-4-(trifluoromethyl)-1H-imidazol-1-yl)-[1,1′-biphenyl]-3-yl)-2-methyl-5-(4-(trifluoromethoxy)phenyl)oxazole]
199 nM | 93% | COc1ccc(-c2oc(C)nc2-c2cc(-c3cc(F)c(CO)c(S(C)(=O)=O)c3)ccc2-n2cc(C(F)(F)F)nc2C)cn1 [Example 570, (3-fluoro-3′-(5-(6-methoxypyridin-3-yl)-2-methyloxazol-4-yl)-4′-(2-methyl-4-(trifluoromethyl)-1H-imidazol-1-yl)-5-(methylsulfonyl)-[1,1′-biphenyl]-4-yl)methanol]
47 nM | 69% | Cc1cc(-c2cc(-c3cccc(S(C)(=O)=O)c3)ccc2-n2cc(C(F)(F)F)nc2C)n(-c2ccc(OC(F)(F)F)cc2)n1 [Example 291, 3-methyl-5-{3′-(methylsulfonyl)-4-[2-methyl-4-(trifluoromethyl)-1H-imidazol-1-yl]biphenyl-3-yl}-1-{4-[(trifluoromethyl)oxy]phenyl}-1H-pyrazole]
1100 nM | 91% | CS(=O)(=O)c1cccc(-c2ccc(-n3cc(C(F)(F)F)nc3C(F)F)c(-n3nncc3-c3ccc(Cl)cc3)c2)c1 [Example 225, 5-(4-chlorophenyl)-1-(4-(2-(difluoromethyl)-4-(trifluoromethyl)-1H-imidazol-1-yl)-3′-(methylsulfonyl)-[1,1′-biphenyl]-3-yl)-1H-1,2,3-triazole]
103 nM | 30% | Cc1nc(-c2ccccc2C(F)(F)F)c(-c2cc(-c3cc(F)c(CO)c(S(C)(=O)=O)c3)ccc2-n2cc(C(F)(F)F)nc2C)o1 [Example 630, (3-fluoro-3′-(2-methyl-4-(2-(trifluoromethyl)phenyl)oxazol-5-yl)-4′-(2-methyl-4-(triftuoromethyl)-1H-imidazol-1-yl)-5-(methylsulfonyl)-[1,1′-biphenyl]-4-yl)methanol]
2540 nM | 64% | Cc1nc(C(F)(F)F)cn1-c1ccc(-c2cccc(S(C)(=O)=O)c2)cc1-n1nncc1-c1ccc(C#N)cc1 [Example 47, 4-(1-{3′-(methylsulfonyl)-4-[2-methyl-4-(trifluoromethyl)-1H-imidazol-1-yl]biphenyl-3-yl}-1H-1,2,3-triazol-5-yl)benzonitrile]
410 nM | 85% | Cc1nc(C(F)(F)F)cn1-c1ccc(-c2cccc(S(C)(=O)=O)c2)cc1-c1oc(CCO)nc1-c1ccc2c(c1)OC(F)(F)O2 [Example 622, 2-(4-(2,2-difluorobenzo[d][1,3]dioxol-5-yl)-5-(4-(2-methyl-4-(trifluoromethyl)-1H-imidazol-1-yl)-3′-(methylsulfonyl)-[1,1′-biphenyl]-3-yl)oxazol-2-yl)ethanol]
130 nM | 93% | Cc1cc(-c2cnnn2-c2cc(-c3cccc(S(C)(=O)=O)c3)ccc2-n2cc(C(F)(F)F)nc2C)ccc1OC(F)(F)F [Example 20, 1-{3′-(methylsulfonyl)-4-[2-methyl-4-(trifluoromethyl)-1H-imidazol-1-yl]biphenyl-3-yl}-5-{3-methyl-4-[(trifluoromethyl)oxy]phenyl}-1H-1,2,3-triazole]
269 nM | 93% | Cc1nc(-c2ccc(OC(F)(F)F)cc2)c(-c2cc(-c3cccc([S+](C)[O-])c3)ccc2-n2cc(C(F)(F)F)nc2C)o1 (centres unmarked) [Example 627, 2-methyl-5-(4-(2-methyl-4-(trifluoromethyl)-1H-imidazol-1-yl)-3′-(methylsulfinyl)-[1,1′-biphenyl]-3-yl)-4-(4-(trifluoromethoxy)phenyl)oxazole]
1290 nM | 99% | Cc1nc(C(F)(F)F)cn1-c1ccc(-c2cccc(S(C)(=O)=O)c2)cc1-n1nncc1C(=O)c1ccc(C(F)(F)F)cc1 [Example 138, (1-{3′-(methylsulfonyl)-4-[2-methyl-4-(trifluoromethyl)-1H-imidazol-1-yl]biphenyl-3-yl}-1H-1,2,3-triazol-5-yl)[4-(trifluoromethyl)phenyl]meth-anone]
42 nM | 112% | Cc1nc(-c2ccc(OC(F)F)cc2)c(-c2cc(-c3cc(F)c(CO)c(S(C)(=O)=O)c3)ccc2-n2cc(C(F)(F)F)nc2C)o1 [Example 624, (3′-(4-(4-(difluoromethoxy)phenyl)-2-methyloxazol-5-yl)-3-fluoro-4′-(2-methyl-4-(trifluoromethyl)-1H-imidazol-1-yl)-5-(methylsulfonyl)-[1,1′-biphenyl]-4-yl)methanol]
306 nM | 111% | COCc1c(F)cc(-c2ccc(-n3cc(C(F)(F)F)nc3C)c(-n3nncc3-c3ccc(OC(F)(F)F)cc3)c2)cc1S(C)(=O)=O [Example 88, 1-{3′-fluoro-4′-[(methyloxy)methyl]-5′-(methylsulfonyl)-4-[2-methyl-4-(trifluoromethyl)-1H-imidazol-1-yl]biphenyl-3-yl}-5-{4-[(trifluoromethyl)oxy]phenyl}-1H-1,2,3-triazole]
398 nM | 62% | Cc1nc(-c2cc(-c3cccc(S(C)(=O)=O)c3)ccc2-n2cc(C(F)(F)F)nc2C)c(-c2ccc(Cl)c(OC(F)F)c2)o1 [Example 458, 5-(4-chloro-3-(difluoromethoxy)phenyl)-2-methyl-4-(4-(2-methyl-4-(trifluoromethyl)-1H-imidazol-1-yl)-3′-(methylsulfonyl)biphenyl-3-yl)oxazole]
502 nM | 70% | Cc1nc(C(C)(F)F)cn1-c1ccc(-c2cccc(S(=O)(=O)N(C)C)c2)cc1-n1nncc1-c1ccc(OC(F)(F)F)cc1 [Example 181, 4′-[4-(1,1-difluoroethyl)-2-methyl-1H-imidazol-1-yl]-N,N-dimethyl-3′-(5-{4-[(trifluoromethyl)oxy]phenyl}-1H-1,2,3-triazol-1-yl)biphenyl-3-sulfonamide]
